activation, AC50 and Emax data for 14 compounds are collected here from US12122778B2, “Activating pyruvate kinase R” (Novo Nordisk Health Care AG, priority 2018, dated 2024).

The target in one assay is PKR(G332S) (Homo sapiens, UniProt P30613, G332S). Briefly: Luminescence Biochemical Assay (Kinase Glo Plus), PKR G332S mutant. The settings on record: with FBP; for activation at 1.54 µM: 1.54 μM compound, read-out: AC50 LUM KGP FBP % Fold@1.54 μM mean; for AC50: read-out: AC50 LUM KGP FBP AC50 μM gmean (column A); for Emax: read-out: AC50 LUM KGP FBP MAX % FOLD mean.
PKR(G332S), sequence (P30613 whole entry G332S): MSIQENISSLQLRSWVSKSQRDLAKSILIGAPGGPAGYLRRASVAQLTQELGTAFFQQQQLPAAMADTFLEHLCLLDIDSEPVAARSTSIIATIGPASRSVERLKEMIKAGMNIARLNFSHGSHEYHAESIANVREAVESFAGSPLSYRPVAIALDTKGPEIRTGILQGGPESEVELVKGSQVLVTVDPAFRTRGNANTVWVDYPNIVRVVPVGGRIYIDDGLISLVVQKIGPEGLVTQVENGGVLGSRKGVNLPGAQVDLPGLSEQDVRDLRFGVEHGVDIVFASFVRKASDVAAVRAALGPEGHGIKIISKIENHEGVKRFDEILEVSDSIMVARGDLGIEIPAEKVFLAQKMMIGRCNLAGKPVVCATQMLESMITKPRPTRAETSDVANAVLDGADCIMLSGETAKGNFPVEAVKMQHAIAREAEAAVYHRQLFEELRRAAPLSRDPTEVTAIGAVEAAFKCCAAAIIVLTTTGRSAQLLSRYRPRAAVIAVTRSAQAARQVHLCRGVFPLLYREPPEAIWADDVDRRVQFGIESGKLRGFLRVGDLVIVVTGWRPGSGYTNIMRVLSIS
The target in another assay is PKR(wt) (Homo sapiens, UniProt P30613). Briefly: Luminescence Biochemical Assay (Kinase Glo Plus), wild type PKR. Particulars: without FBP; for activation at 1.54 µM: 1.54 μM compound, read-out: AC50 LUM KGP woFBP % Fold@1.54 μM mean; for AC50: read-out: AC50 LUM KGP woFBP AC50 μM gmean; for Emax: read-out: AC50 LUM KGP woFBP MAX % FOLD mean.
PKR(wt), sequence (P30613 whole entry): as the sequence (P30613 whole entry G332S) above, with S332G counted along it
A further assay deals with PKR(R510Q) (Homo sapiens, UniProt P30613, R510Q). Briefly: Luminescence Biochemical Assay (Kinase Glo Plus), PKR R510Q mutant. The settings on record: without FBP; for activation at 1.54 µM: 1.54 μM compound, read-out: AC50 LUM KGP woFBP % Fold@1.54 μM mean; for AC50: read-out: AC50 LUM KGP woFBP AC50 μM gmean; for Emax: read-out: AC50 LUM KGP woFBP MAX % FOLD mean.
PKR(R510Q), sequence (P30613 whole entry R510Q): as the sequence (P30613 whole entry G332S) above, with S332G, R510Q counted along it

For the compound `O=C([C@H](O)c1ccccc1)N1CC2=C(C1)CN(S(=O)(=O)c1cccnc1C(F)(F)F)C2` [Example 4-2, (R)-2-hydroxy-2-phenyl-1-(5-(2-(trifluoromethyl)pyridin-3-ylsulfonyl)-4,5-dihydropyrrolo[3,4-c]pyrrol-2(1H,3H,4H)-yl)ethanone], on PKR(G332S), the activation at 1.54 µM lay in the range of 75 to 250%, the AC50 is 1 to 40 µM and the Emax is 75 to 250%. On PKR(wt), the activation at 1.54 µM was 75 to 250%, the concentration at half-maximal activity (AC50) was 1 to 40 µM and the Emax lay in the range of 75 to 250%. On PKR(R510Q), the activation at 1.54 µM lay in the range of 75 to 250%, the AC50 was in the range of 1 to 40 µM and the Emax was in the range of 75 to 250%.
On to `O=C(N1CCOCC1)N1CC2=C(C1)CN(S(=O)(=O)c1ccc3ncsc3c1)C2` [Example 6-1, (5-(benzo[d]thiazol-6-ylsulfonyl)-3,4,5,6-tetrahydropyrrolo[3,4-c]pyrrol-2(1H)-yl)(morpholino)methanone], for which the activation at 1.54 µM at PKR(G332S), on PKR(wt) and on PKR(R510Q) was 75 to 250% throughout. Further, the AC50 on PKR(G332S), on PKR(wt) and at PKR(R510Q) was 1 to 40 µM each time. The Emax is 75 to 250% at PKR(G332S), 250 to 500% on PKR(wt) and 250 to 500% on PKR(R510Q).
For `O=C(C1CCOCC1)N1CC2=C(C1)CN(S(=O)(=O)c1ccc3c(c1)NCCO3)C2` [Example 7-1, (5-((3,4-dihydro-2H-benzo[b][1,4]oxazin-6-yl)sulfonyl)-3,4,5,6-tetrahydropyrrolo[3,4-c]pyrrol-2(1H)-yl)(tetrahydro-2H-pyran-4-yl)methanone], at PKR(G332S), the activation at 1.54 µM is 75 to 250%, the AC50 fell in the range of 0.1 to 1 µM and the Emax fell in the range of 75 to 250%. Further, at PKR(wt), the activation at 1.54 µM lay within 75 to 250%, the AC50 lay within 0.1 to 1 µM and the Emax is 250 to 500%. Also, at PKR(R510Q), the activation at 1.54 µM lay in the range of 75 to 250%, the AC50 fell in the range of 1 to 40 µM and the Emax is 250 to 500%.
Turning to `O=C(Cc1ccccn1)N1CC2=C(C1)CN(S(=O)(=O)c1ccc(OC(F)F)cc1)C2` [Example 8-1, 1-(5-[[4-(difluoromethoxy)benzene]sulfonyl]-1H,2H,3H,4H,5H,6H-pyrrolo[3,4-c]pyrrol-2-yl)-2-(pyridin-2-yl)ethan-1-one], at PKR(G332S), the activation at 1.54 µM fell in the range of 75 to 250%, the AC50 was at most 0.1 µM and the Emax was 75 to 250%. Moreover, on PKR(wt), the activation at 1.54 µM lay within 250 to 50000%, the AC50 lay within 0.1 to 1 µM and the Emax fell in the range of 250 to 500%. Moreover, at PKR(R510Q), the activation at 1.54 µM lay within 250 to 50000%, the AC50 is 0.1 to 1 µM and the Emax was in the range of 250 to 500%.
In the case of `O=C(C(O)c1cccnc1)N1CC2=C(C1)CN(S(=O)(=O)c1ccc(OC(F)F)cc1)C2` (centres unmarked) [Example 9-1, 1-(5-[[4-(Difluoromethoxy)benzene]sulfonyl]-1H,2H,3H,4H,5H,6H-pyrrolo[3,4-c]pyrrol-2-yl)-2-hydroxy-2-(pyridin-3-yl)ethan-1-one], on PKR(G332S), the activation at 1.54 µM lay in the range of 75 to 250%, the AC50 is at most 0.1 µM and the Emax was in the range of 75 to 250%. Also, on PKR(wt), the activation at 1.54 µM was 250 to 50000%, the AC50 was at most 0.1 µM and the Emax lay in the range of 250 to 500%. In addition, on PKR(R510Q), the activation at 1.54 µM lay within 250 to 50000%, the AC50 was at most 0.1 µM and the Emax lay within 250 to 500%.
Turning to `O=C([C@H](O)c1ccccc1)N1CC2=C(C1)CN(S(=O)(=O)c1ccccn1)C2` [Example 9-2, (2R)-2-hydroxy-2-phenyl-1-[5-(pyridine-2-sulfonyl)-1H,2H,3H,4H,5H,6H-pyrrolo[3,4-c]pyrrol-2-yl]ethan-1-one], at PKR(G332S), the activation at 1.54 µM lay within 75 to 250%, the AC50 was in the range of 0.1 to 1 µM and the Emax fell in the range of 75 to 250%. At PKR(wt), the activation at 1.54 µM lay in the range of 75 to 250% and the Emax lay within 75 to 250%. Moreover, on PKR(R510Q), the activation at 1.54 µM lay within 75 to 250%, the AC50 lay within 0.1 to 1 µM and the Emax was 250 to 500%.
As to `O=C([C@H](O)c1ccccc1)N1CC2=C(C1)CN(S(=O)(=O)c1cccc(C(F)(F)F)n1)C2` [Example 9-3, (2R)-2-hydroxy-2-phenyl-1-[5-[6-(trifluoromethyl)pyridine-2-sulfonyl]-1H,2H,3H,4H,5H,6H-pyrrolo[3,4-c]pyrrol-2-yl]ethan-1-one], on PKR(G332S), the activation at 1.54 µM was 75 to 250%, the AC50 was in the range of 1 to 40 µM and the Emax fell in the range of 75 to 250%. For the same compound, on PKR(wt), the activation at 1.54 µM lay in the range of 75 to 250%, the AC50 was 0.1 to 1 µM and the Emax fell in the range of 75 to 250%. Also, at PKR(R510Q), the activation at 1.54 µM fell in the range of 75 to 250%, the AC50 lay within 1 to 40 µM and the Emax fell in the range of 250 to 500%.
For the compound `O=C(N1CC2=C(C1)CN(S(=O)(=O)c1cccc3cccnc13)C2)N1CC(O)(Cc2ccccc2)C1` [Example 12-1, (3-Benzyl-3-hydroxyazetidin-1-yl)(5-(quinolin-8-ylsulfonyl)-4,5-dihydropyrrolo[3,4-c]pyrrol-2(1H,3H,4)-yl)methanone], the activation at 1.54 µM at PKR(G332S), at PKR(wt) and at PKR(R510Q) was 75 to 250% each time. The AC50 on PKR(G332S), on PKR(wt) and at PKR(R510Q) was 1 to 40 µM in each case. In addition, the Emax on PKR(G332S), at PKR(wt) and on PKR(R510Q) was 75 to 250% in each case.
Regarding `CC(=O)Nc1cc(S(=O)(=O)N2CC3=C(CN(C(=O)[C@H](O)c4ccccc4)C3)C2)ccc1F` [Example 14-1, (R)—N-(2-fluoro-5-((5-(2-hydroxy-2-phenylacetyl)-3,4,5,6-tetrahydropyrrolo[3,4-c]pyrrol-2(1H)-yl)sulfonyl)phenyl)acetamide], at PKR(G332S), the activation at 1.54 µM was in the range of 75 to 250%, the AC50 lay within 1 to 40 µM and the Emax was 75 to 250%. In addition, at PKR(wt), the activation at 1.54 µM fell in the range of 75 to 250%, the AC50 was 1 to 40 µM and the Emax lay in the range of 75 to 250%. Besides, on PKR(R510Q), the activation at 1.54 µM was 75 to 250%, the concentration at half-maximal activity (AC50) lay in the range of 1 to 40 µM and the Emax was 75 to 250%.
As for `Cc1cccc(S(=O)(=O)N2CC3=C(CN(C(=O)NCc4ccccc4F)C3)C2)n1` [Example 15-1, N-[(2-fluorophenyl)methyl]-5-(6-methylpyridine-2-sulfonyl)-1H,2H,3H,4H,5H,6H-pyrrolo[3,4-c]pyrrole-2-carboxamide], the activation at 1.54 µM at PKR(G332S) lay within 75 to 250%; at PKR(wt), 250 to 50000%; at PKR(R510Q) it was 250 to 50000%. In addition, the values for the AC50 on PKR(G332S), at PKR(wt) and at PKR(R510Q) were 0.1 to 1 µM, at most 0.1 µM and at most 0.1 µM, respectively. In addition, the Emax on PKR(G332S) lay within 75 to 250%; at PKR(wt), 250 to 500%; at PKR(R510Q) it was 250 to 500%.
Take `O=C(Cc1cccnc1)N1CC2=C(C1)CN(S(=O)(=O)c1ccccn1)C2` [Example 16-1, 2-(Pyridin-3-yl)-1-[5-(pyridine-2-sulfonyl)-1H,2H,3H,4H,5H,6H-pyrrolo[3,4-c]pyrrol-2-yl]ethan-1-one]: at PKR(G332S), the activation at 1.54 µM is 75 to 250%, the AC50 was 1 to 40 µM and the Emax was in the range of 75 to 250%. On PKR(wt), the activation at 1.54 µM is 75 to 250%, the AC50 was in the range of 1 to 40 µM and the Emax lay within 250 to 500%. At PKR(R510Q), the activation at 1.54 µM was 75 to 250%, the AC50 was 1 to 40 µM and the Emax is 75 to 250%.
For `NS(=O)(=O)c1cccc(S(=O)(=O)N2CC3=C(CN(C(=O)[C@H](O)c4ccccc4)C3)C2)c1` [Example 17-1, 3-[5-[(2R)-2-hydroxy-2-phenylacetyl]-1H,2H,3H,4H,5H,6H-pyrrolo[3,4-c]pyrrole-2-sulfonyl]benzene-1-sulfonamide], the activation at 1.54 µM at PKR(G332S), on PKR(wt) and on PKR(R510Q) was 75 to 250% throughout. For the same compound, the AC50 on PKR(G332S), on PKR(wt) and at PKR(R510Q) was 1 to 40 µM throughout. Further, the Emax at PKR(G332S), on PKR(wt) and at PKR(R510Q) was 75 to 250% throughout.
For `CN1CCOc2ccc(S(=O)(=O)N3CC4=C(CN(C(=O)[C@H]5CCCO5)C4)C3)cc21` [Example 18-2, 4-Methyl-6-({5-[(2R)-oxolane-2-carbonyl]-1H,2H,3H,4H,5H,6H-pyrrolo[3,4-c]pyrrol-2-yl}sulfonyl)-3,4-dihydro-2H-1,4-benzoxazine], on PKR(G332S), the activation at 1.54 µM lay within 75 to 250%, the AC50 was in the range of 1 to 40 µM and the Emax was 75 to 250%. At PKR(wt), the activation at 1.54 µM lay in the range of 75 to 250%, the AC50 fell in the range of 0.1 to 1 µM and the Emax lay within 75 to 250%. Moreover, at PKR(R510Q), the activation at 1.54 µM was 75 to 250%, the half-maximal activity concentration (AC50) lay in the range of 1 to 40 µM and the Emax was in the range of 75 to 250%.
Turning to `CC(C)Oc1ccc(S(=O)(=O)N2CC3=C(CN(C(=O)[C@H](O)c4ccccc4)C3)C2)cc1` [Example 18-12, (2R)-2-hydroxy-2-phenyl-1-{5-[4-(propan-2-yloxy)benzenesulfonyl]-1H,2H,3H,4H,5H,6H-pyrrolo[3,4-c]pyrrol-2-yl}ethan-1-one], at PKR(G332S), the activation at 1.54 µM fell in the range of 75 to 250%, the AC50 was 0.1 to 1 µM and the Emax is 75 to 250%. At PKR(wt), the activation at 1.54 µM lay within 75 to 250%, the AC50 lay within 0.1 to 1 µM and the Emax was in the range of 75 to 250%. Besides, at PKR(R510Q), the activation at 1.54 µM was in the range of 75 to 250%, the AC50 lay in the range of 1 to 40 µM and the Emax was 250 to 500%.
